Values after ≈ are worked out from the molar mass of the structure shown.
Experiments:
Format in all cases: functional
[1] = system: Staphylococcus epidermidis; experiment: Antibacterial activity against methicillin-resistant Staphylococcus epidermidis by microdilution broth method
[2] = system: Staphylococcus epidermidis; experiment: Antibacterial activity against methicillin-susceptible Staphylococcus epidermidis by microdilution broth method
[3] = system: Enterococcus faecalis; experiment: Antibacterial activity against Enterococcus faecalis by microdilution broth method
[4] = system: Staphylococcus aureus; experiment: Antibacterial activity against methicillin-resistant Staphylococcus aureus by microdilution broth method
[5] = system: Staphylococcus aureus; experiment: Antibacterial activity against methicillin-susceptible Staphylococcus aureus by microdilution broth method
[6] = system: Streptococcus pneumoniae; experiment: Antibacterial activity against penicillin-resistant Streptococcus pneumoniae by microdilution broth method
[7] = system: Staphylococcus aureus; experiment: Antibacterial activity against methicillin-susceptible Staphylococcus aureus 04-5 infected po dosed KunMing mouse
[8] = system: Staphylococcus epidermidis; experiment: Antibacterial activity against methicillin-resistant Staphylococcus epidermidis 03427 infected po dosed KunMing mouse
[9] = system: Staphylococcus aureus; experiment: Antibacterial activity against methicillin-resistant Staphylococcus aureus BAA-42 infected po dosed KunMing mouse

Molecule `O=C1O[C@@H](Cn2ccnn2)CN1c1ccc(N2CCN(S(=O)(=O)c3ccccc3)CC2)c(F)c1` has an MIC [1] of 2 µg/mL (≈ 4.11 µM), an MIC [2] of 0.5 µg/mL (≈ 1.03 µM) and an MIC [3] of 2 µg/mL (≈ 4.11 µM). For the same molecule, the MIC [4] was 1 µg/mL (≈ 2.06 µM), the MIC [5] was 1 µg/mL (≈ 2.06 µM) and the MIC [6] was 1 µg/mL (≈ 2.06 µM).
Work on `CC(=O)NC[C@H]1CN(c2ccc(N3CCOCC3)c(F)c2)C(=O)O1` [LINEZOLID] yielded an MIC [1] of 0.5 µg/mL (≈ 1.48 µM), an MIC [2] of 1 µg/mL (≈ 2.96 µM) and an MIC [3] of 0.25 µg/mL (≈ 0.741 µM). For the same molecule, the ED50 [7] was 24 mg/kg, the MIC [4] was 1 µg/mL (≈ 2.96 µM) and the MIC [5] was 0.125 µg/mL (≈ 0.371 µM). It also gave an ED50 [8] of 84.8 mg/kg, an ED50 [9] of 17.9 mg/kg and an MIC [6] of 0.25 µg/mL (≈ 0.741 µM).
`CN[C@H](CC(C)C)C(=O)N[C@H]1C(=O)N[C@@H](CC(N)=O)C(=O)N[C@H]2C(=O)N[C@H]3C(=O)N[C@H](C(=O)N[C@H](C(=O)O)c4cc(O)cc(O)c4-c4cc3ccc4O)[C@H](O)c3ccc(c(Cl)c3)Oc3cc2cc(c3O[C@@H]2O[C@H](CO)[C@@H](O)[C@H](O)[C@H]2O[C@H]2C[C@](C)(N)[C@H](O)[C@H](C)O2)Oc2ccc(cc2Cl)[C@H]1O` [VANCOMYCIN] showed an MIC [1] of 0.25 µg/mL (≈ 0.173 µM), an MIC [2] of 0.5 µg/mL (≈ 0.345 µM) and an MIC [3] of 0.25 µg/mL (≈ 0.173 µM). It also gave an MIC [5] of 0.25 µg/mL (≈ 0.173 µM) and an MIC [6] of 0.25 µg/mL (≈ 0.173 µM).
Molecule `O=C1O[C@@H](Cn2ccnn2)CN1c1ccc(N2CCN(S(=O)(=O)c3cccc([N+](=O)[O-])c3)CC2)c(F)c1` has an MIC [1] of 0.5 µg/mL (≈ 0.941 µM), an MIC [2] of 0.06 µg/mL (≈ 0.113 µM) and an MIC [3] of 0.03 µg/mL (≈ 0.0564 µM). For the same molecule, the ED50 [7] was 55.1 mg/kg, the MIC [4] was 0.06 µg/mL (≈ 0.113 µM) and the MIC [5] was 0.06 µg/mL (≈ 0.113 µM). The ED50 [8] was 84.3 mg/kg, the ED50 [9] was > 100 mg/kg and the MIC [6] was 0.015 µg/mL (≈ 0.0282 µM).
`O=C1O[C@@H](Cn2ccnn2)CN1c1ccc(N2CCN(S(=O)(=O)c3ccc(Br)cc3)CC2)c(F)c1` gave an MIC [1] of 4 µg/mL (≈ 7.07 µM), an MIC [2] of 8 µg/mL (≈ 14.1 µM) and an MIC [3] of 2 µg/mL (≈ 3.54 µM). For the same molecule, the MIC [4] was 8 µg/mL (≈ 14.1 µM), the MIC [5] was 4 µg/mL (≈ 7.07 µM) and the MIC [6] was 2 µg/mL (≈ 3.54 µM).
Work on `O=C1O[C@@H](Cn2ccnn2)CN1c1ccc(N2CCN(S(=O)(=O)c3cccs3)CC2)c(F)c1` yielded an MIC [1] of 1 µg/mL (≈ 2.03 µM), an MIC [2] of 1 µg/mL (≈ 2.03 µM) and an MIC [3] of 1 µg/mL (≈ 2.03 µM). It also gave an MIC [4] of 1 µg/mL (≈ 2.03 µM), an MIC [5] of 1 µg/mL (≈ 2.03 µM) and an MIC [6] of 1 µg/mL (≈ 2.03 µM).
In the case of `O=C1O[C@@H](Cn2ccnn2)CN1c1ccc(N2CCN(S(=O)(=O)c3cccc(F)c3)CC2)c(F)c1`, the MIC [1] is reported as 1 µg/mL (≈ 1.98 µM), the MIC [2] is reported as 0.25 µg/mL (≈ 0.496 µM) and the MIC [3] is reported as 0.004 µg/mL (≈ 0.00793 µM). It also gave an ED50 [7] of 55.1 mg/kg, an MIC [4] of 0.25 µg/mL (≈ 0.496 µM) and an MIC [5] of 0.001 µg/mL (≈ 0.00198 µM). The ED50 [8] was > 100 mg/kg, the ED50 [9] was > 100 mg/kg and the MIC [6] was 0.002 µg/mL (≈ 0.00396 µM).
With `O=C1O[C@@H](Cn2ccnn2)CN1c1ccc(N2CCN(S(=O)(=O)c3ccc(F)cc3F)CC2)c(F)c1` the MIC [1] was 1 µg/mL (≈ 1.91 µM), the MIC [2] was 1 µg/mL (≈ 1.91 µM) and the MIC [3] was 2 µg/mL (≈ 3.83 µM). For the same molecule, the MIC [4] was 2 µg/mL (≈ 3.83 µM), the MIC [5] was 2 µg/mL (≈ 3.83 µM) and the MIC [6] was 2 µg/mL (≈ 3.83 µM).
With `O=C1O[C@@H](Cn2ccnn2)CN1c1ccc(N2CCN(S(=O)(=O)c3ccc([N+](=O)[O-])cc3)CC2)c(F)c1` the MIC [1] was 1 µg/mL (≈ 1.88 µM), the MIC [2] was 1 µg/mL (≈ 1.88 µM) and the MIC [3] was 1 µg/mL (≈ 1.88 µM). For the same molecule, the MIC [4] was 1 µg/mL (≈ 1.88 µM), the MIC [5] was 1 µg/mL (≈ 1.88 µM) and the MIC [6] was 0.5 µg/mL (≈ 0.941 µM).
Work on `O=C1O[C@@H](Cn2ccnn2)CN1c1ccc(N2CCN(S(=O)(=O)c3cccc(C(F)(F)F)c3)CC2)c(F)c1` yielded an MIC [1] of 0.5 µg/mL (≈ 0.902 µM), an MIC [2] of 0.06 µg/mL (≈ 0.108 µM) and an MIC [3] of 0.03 µg/mL (≈ 0.0541 µM). It also gave an MIC [4] of 0.06 µg/mL (≈ 0.108 µM), an MIC [5] of 0.06 µg/mL (≈ 0.108 µM) and an MIC [6] of 0.015 µg/mL (≈ 0.0271 µM).
In the case of `O=C(OCc1ccccc1)N1CCN(c2ccc(N3C[C@H](Cn4ccnn4)OC3=O)cc2F)CC1`, the MIC [1] is reported as 0.5 µg/mL (≈ 1.04 µM), the MIC [2] is reported as 1 µg/mL (≈ 2.08 µM) and the MIC [3] is reported as 0.5 µg/mL (≈ 1.04 µM). It also gave an MIC [4] of 0.5 µg/mL (≈ 1.04 µM), an MIC [5] of 0.25 µg/mL (≈ 0.52 µM) and an MIC [6] of 0.5 µg/mL (≈ 1.04 µM).
`O=C1O[C@@H](Cn2ccnn2)CN1c1ccc(N2CCNCC2)c(F)c1` showed an MIC [1] of 1 µg/mL (≈ 2.89 µM), an MIC [2] of 1 µg/mL (≈ 2.89 µM) and an MIC [3] of 2 µg/mL (≈ 5.77 µM). It also gave an MIC [4] of 1 µg/mL (≈ 2.89 µM), an MIC [5] of 1 µg/mL (≈ 2.89 µM) and an MIC [6] of 1 µg/mL (≈ 2.89 µM).
`O=C1O[C@@H](Cn2ccnn2)CN1c1ccc(N2CCN(S(=O)(=O)c3ccc(C(F)(F)F)cc3)CC2)c(F)c1` was tested, and the MIC [1] was 1 µg/mL (≈ 1.8 µM), the MIC [2] was 0.5 µg/mL (≈ 0.902 µM) and the MIC [3] was 0.5 µg/mL (≈ 0.902 µM). It also gave an MIC [4] of 1 µg/mL (≈ 1.8 µM), an MIC [5] of 0.5 µg/mL (≈ 0.902 µM) and an MIC [6] of 0.5 µg/mL (≈ 0.902 µM).
`Cc1ccc(S(=O)(=O)N2CCN(c3ccc(N4C[C@H](Cn5ccnn5)OC4=O)cc3F)CC2)cc1` was tested, and the MIC [1] was 2 µg/mL (≈ 4 µM), the MIC [2] was 0.5 µg/mL (≈ 0.999 µM) and the MIC [3] was 2 µg/mL (≈ 4 µM). The MIC [4] was 1 µg/mL (≈ 2 µM), the MIC [5] was 1 µg/mL (≈ 2 µM) and the MIC [6] was 1 µg/mL (≈ 2 µM).
`O=C1O[C@@H](Cn2ccnn2)CN1c1ccc(N2CCN(S(=O)(=O)c3ccccc3C(F)(F)F)CC2)c(F)c1` showed an MIC [1] of 2 µg/mL (≈ 3.61 µM), an MIC [2] of 2 µg/mL (≈ 3.61 µM) and an MIC [3] of 2 µg/mL (≈ 3.61 µM). It also gave an MIC [4] of 0.5 µg/mL (≈ 0.902 µM), an MIC [5] of 1 µg/mL (≈ 1.8 µM) and an MIC [6] of 0.5 µg/mL (≈ 0.902 µM).
`N#Cc1ccc(S(=O)(=O)N2CCN(c3ccc(N4C[C@H](Cn5ccnn5)OC4=O)cc3F)CC2)cc1` showed an MIC [1] of 2 µg/mL (≈ 3.91 µM), an MIC [2] of 2 µg/mL (≈ 3.91 µM) and an MIC [3] of 4 µg/mL (≈ 7.82 µM). The MIC [4] was 0.5 µg/mL (≈ 0.977 µM), the MIC [5] was 2 µg/mL (≈ 3.91 µM) and the MIC [6] was 4 µg/mL (≈ 7.82 µM).
For `O=C1O[C@@H](Cn2ccnn2)CN1c1ccc(N2CCN(S(=O)(=O)c3ccc(Cl)cc3)CC2)c(F)c1`, the MIC [1] was 0.5 µg/mL (≈ 0.96 µM), the MIC [2] was 0.5 µg/mL (≈ 0.96 µM) and the MIC [3] was 0.25 µg/mL (≈ 0.48 µM). For the same molecule, the MIC [4] was 0.5 µg/mL (≈ 0.96 µM), the MIC [5] was 0.125 µg/mL (≈ 0.24 µM) and the MIC [6] was 0.125 µg/mL (≈ 0.24 µM).
For `Nc1cccc(S(=O)(=O)N2CCN(c3ccc(N4C[C@H](Cn5ccnn5)OC4=O)cc3F)CC2)c1`, the MIC [1] was 1 µg/mL (≈ 1.99 µM), the MIC [2] was 0.5 µg/mL (≈ 0.997 µM) and the MIC [3] was 0.25 µg/mL (≈ 0.498 µM). The ED50 [7] was > 100 mg/kg, the MIC [4] was 0.25 µg/mL (≈ 0.498 µM) and the MIC [5] was 0.125 µg/mL (≈ 0.249 µM). The ED50 [8] was > 100 mg/kg and the MIC [6] was 0.5 µg/mL (≈ 0.997 µM).
`O=C1O[C@@H](Cn2ccnn2)CN1c1ccc(N2CCN(S(=O)(=O)c3ccccc3[N+](=O)[O-])CC2)c(F)c1` was tested, and the MIC [1] was 1 µg/mL (≈ 1.88 µM), the MIC [2] was 0.5 µg/mL (≈ 0.941 µM) and the MIC [3] was 0.5 µg/mL (≈ 0.941 µM). It also gave an MIC [4] of 1 µg/mL (≈ 1.88 µM), an MIC [5] of 0.5 µg/mL (≈ 0.941 µM) and an MIC [6] of 0.5 µg/mL (≈ 0.941 µM).
`COc1ccc(S(=O)(=O)N2CCN(c3ccc(N4C[C@H](Cn5ccnn5)OC4=O)cc3F)CC2)cc1` showed an MIC [1] of 2 µg/mL (≈ 3.87 µM), an MIC [2] of 2 µg/mL (≈ 3.87 µM) and an MIC [3] of 2 µg/mL (≈ 3.87 µM). The MIC [4] was 0.5 µg/mL (≈ 0.968 µM), the MIC [5] was 1 µg/mL (≈ 1.94 µM) and the MIC [6] was 0.5 µg/mL (≈ 0.968 µM).
`O=C1O[C@@H](Cn2ccnn2)CN1c1ccc(N2CCN(S(=O)(=O)c3ccc(F)cc3)CC2)c(F)c1` showed an MIC [1] of 1 µg/mL (≈ 1.98 µM), an MIC [2] of 0.5 µg/mL (≈ 0.991 µM) and an MIC [3] of 1 µg/mL (≈ 1.98 µM). It also gave an MIC [4] of 1 µg/mL (≈ 1.98 µM), an MIC [5] of 0.5 µg/mL (≈ 0.991 µM) and an MIC [6] of 0.5 µg/mL (≈ 0.991 µM).
